Structures are written as SMILES. A value given as a limit tells only on which side of the number the result lay.

In one assay the target is T1, human NEP (Homo sapiens, UniProt P08473).
T1 construct: purchased R&D Systems, Minneapolis, Minn; 1182-ZN
T1 sequence (P08473 whole entry): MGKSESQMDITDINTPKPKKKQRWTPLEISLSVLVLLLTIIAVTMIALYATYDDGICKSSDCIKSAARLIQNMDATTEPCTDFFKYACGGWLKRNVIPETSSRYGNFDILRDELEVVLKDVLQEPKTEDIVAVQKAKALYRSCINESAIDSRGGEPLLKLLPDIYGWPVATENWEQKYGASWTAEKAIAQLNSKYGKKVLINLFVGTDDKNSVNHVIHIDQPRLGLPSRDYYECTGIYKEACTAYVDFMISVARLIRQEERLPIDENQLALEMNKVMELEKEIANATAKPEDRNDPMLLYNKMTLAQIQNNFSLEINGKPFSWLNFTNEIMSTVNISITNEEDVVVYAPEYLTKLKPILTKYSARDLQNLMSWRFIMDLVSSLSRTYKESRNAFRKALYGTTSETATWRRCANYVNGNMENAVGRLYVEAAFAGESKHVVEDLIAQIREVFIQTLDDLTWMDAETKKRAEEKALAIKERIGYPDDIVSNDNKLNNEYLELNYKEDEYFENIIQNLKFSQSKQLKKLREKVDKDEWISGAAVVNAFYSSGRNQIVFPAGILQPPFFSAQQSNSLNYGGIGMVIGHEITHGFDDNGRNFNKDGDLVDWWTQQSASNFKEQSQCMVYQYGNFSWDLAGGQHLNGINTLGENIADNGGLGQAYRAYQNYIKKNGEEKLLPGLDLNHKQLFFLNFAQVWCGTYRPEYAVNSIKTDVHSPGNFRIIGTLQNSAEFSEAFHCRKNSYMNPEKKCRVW
Kind of assay: In vitro enzyme inhibition assay at human NEP (fluorogenic peptide substrate). It counts as biochemical. The following applies: recombinant human NEP; substrate Mca-D-Arg-Arg-Leu-Dap-(Dnp)-OH 10 μM; 37° C.; values given as ranges. The protocol: The inhibitory activities of compounds at human and rat neprilysin (EC 3.4.24.11; NEP) and human angiotensin converting enzyme (ACE) were determined using in vitro assays as described below.
Recombinant human NEP and recombinant human ACE were obtained commercially (R&D Systems, Minneapolis, Minn., catalog numbers 1182-ZN and 929-ZN, respectively). The fluorogenic peptide substrate Mca-D-Arg-Arg-Leu-Dap-(Dnp)-OH (Medeiros et al. (1997) Braz. J. Med. Biol. Res. 30:1157-62; Anaspec, San Jose, Calif.) and Abz-Phe-Arg-Lys(Dnp)-Pro-OH (Araujo et al. (2000) Biochemistry 39:8519-8525; Bachem, Torrance, Calif.) were used in the NEP and ACE assays respectively.
The assays were performed in 384-well white opaque plates at 37° C. using the fluorogenic peptide substrates at a concentration of 10 μM in Assay Buffer (NEP: 50 mM HEPES, pH 7.5, 100 mM NaCl, 0.01% polyethylene glycol sorbitan monolaurate (Tween-20), 10 μM ZnSO4; ACE: 50 mM HEPES, pH 7.5, 100 mM NaCl, 0.01% Tween-20, 1 μM ZnSO4).
Test compounds were assayed over the range of concentrations from 10 μM to 20 pM. Test compounds were added to the enzymes and incubated for 30 minute at 37° C. prior to initiating the reaction by the addition of substrate. Reactions were terminated after 20 minutes of incubation at 37° C. by the addition of glacial acetic acid to a final concentration of 3.6% (v/v).
Plates were read on a fluorometer with excitation and emission wavelengths set to 320 nm and 405 nm, respectively Inhibition constants were obtained by nonlinear regression of the data using the equation (GraphPad Software, Inc., San Diego, Calif.): v=v0/[1+(I/K′)] where v is the reaction rate, v0 is the uninhibited reaction rate, I is the inhibitor concentration and K′ is the apparent inhibition constant.
Compounds of the invention were tested in this assay and found to have pKi values at human NEP as follows.
Regarding `CN(C)C(=O)c1cc(C(=O)N[C@H](Cc2ccccc2Cl)[C@@H](O)C(=O)O)n[nH]1` [Example 2-54], the “pKi values at human NEP” value is reported as 8.0-8.9.

The assay is the same for the next values; noted with them: recombinant human NEP; substrate Mca-D-Arg-Arg-Leu-Dap-(Dnp)-OH 10 μM; 37° C.; values given as ranges; read-out: pKi values at human NEP (converted).
For the compound `COc1ccc(Cn2nc(C(=O)N[C@H](Cc3ccccc3Cl)[C@@H](O)C(=O)O)cc2C(=O)O)cc1F` [Example 2-37, 5-[(1R,2R)-2-Carboxy-1-(2-chloro-benzyl)-2-hydroxy-ethylcarbamoyl]-2-(3-fluoro-4-methoxy-benzyl)-2H-pyrazole-3-carboxylic acid], the Ki is 1.26 to 10 nM.

Regarding `O=C(N[C@H](Cc1ccccc1Cl)[C@@H](O)C(=O)O)c1cc(C(=O)O)n(Cc2ccc(OC(F)(F)F)c(F)c2)n1` [Example 2-39, 5-[(1R,2R)-2-Carboxy-1-(2-chloro-benzyl)-2-hydroxy-ethylcarbamoyl]-2-(3-fluoro-4-trifluoromethoxy-benzyl)-2H-pyrazole-3-carboxylic acid], the Ki is not above 1 nM.

On to `Cc1ccc(Cn2nc(C(=O)N[C@H](Cc3ccccc3Cl)[C@@H](O)C(=O)O)cc2C(=O)O)cc1` [Example 2-40, 5-[(1R,2R)-2-Carboxy-1-(2-chloro-benzyl)-2-hydroxy-ethylcarbamoyl]-2-(4-methyl-benzyl)-2H-pyrazole-3-carboxylic acid], for which the Ki was 1.26 to 10 nM.

Take `O=C(N[C@H](Cc1ccccc1Cl)[C@@H](O)C(=O)O)c1cc(C(=O)O)n(Cc2ccc(Br)cc2)n1` [Example 2-41, 2-(4-Bromo-benzyl)-5-[(1R,2R)-2-carboxy-1-(2-chloro-benzyl)-2-hydroxy-ethylcarbamoyl]-2H-pyrazole-3-carboxylic acid]: the Ki is not above 1 nM.

With `O=C(N[C@H](Cc1ccccc1Cl)[C@@H](O)C(=O)O)c1cc(C(=O)O)n(Cc2c(F)cc(F)cc2F)n1` [Example 2-42, 5-[(1R,2R)-2-Carboxy-1-(2-chloro-benzyl)-2-hydroxy-ethylcarbamoyl]-2-(2,4,6-trifluoro-benzyl)-2H-pyrazole-3-carboxylic acid], the Ki is 1.26 to 10 nM.

Regarding `Cc1cccc(C)c1Cn1nc(C(=O)N[C@H](Cc2ccccc2Cl)[C@@H](O)C(=O)O)cc1C(=O)O` [Example 2-43, 5-[(1R,2R)-2-Carboxy-1-(2-chloro-benzyl)-2-hydroxy-ethylcarbamoyl]-2-(2,6-dimethyl-benzyl)-2H-pyrazole-3-carboxylic acid], the Ki was 1.26 to 10 nM.

Take `O=C(N[C@H](Cc1ccccc1Cl)[C@@H](O)C(=O)O)c1cc(C(=O)O)n(Cc2c(F)cccc2F)n1` [Example 2-44, 5-[(1R,2R)-2-Carboxy-1-(2-chloro-benzyl)-2-hydroxy-ethylcarbamoyl]-2-(2,6-difluoro-benzyl)-2H-pyrazole-3-carboxylic acid]: the Ki was 1.26 to 10 nM.

Turning to `O=C(N[C@H](Cc1ccccc1Cl)[C@@H](O)C(=O)O)c1cc(C(=O)O)[nH]n1` [Example 2-45, 5-[(1R,2R)-2-Carboxy-1-(2-chloro-benzyl)-2-hydroxy-ethylcarbamoyl]-2H-pyrazole-3-carboxylic acid], the Ki is 1.26 to 10 nM.

As for `CC(=O)Nc1cccc(-c2cc(C(=O)N[C@H](Cc3ccccc3Cl)[C@@H](O)C(=O)O)n[nH]2)c1` [Example 2-47, (2R,3R)-3-{[5-(3-Acetylamino-phenyl)-1H-pyrazole-3-carbonyl]-amino}-4-(2-chloro-phenyl)-2-hydroxy-butyric acid], the Ki was 12.6 to 100 nM.

Take `O=C(N[C@H](Cc1ccccc1Cl)[C@@H](O)C(=O)O)c1cc(-c2ccccc2Cl)[nH]n1` [Example 2-48, (2R,3R)-4-(2-Chloro-phenyl)-3-{[5-(2-chloro-phenyl)-1H-pyrazole-3-carbonyl]-amino}-2-hydroxy-butyric acid]: the Ki is 1.26 to 10 nM.

Take `O=C(N[C@H](Cc1ccccc1Cl)[C@@H](O)C(=O)O)c1cc(-c2ccc(-c3ccccc3)cc2)[nH]n1` [Example 2-49, (2R,3R)-3-[(5-Biphenyl-4-yl-1H-pyrazole-3-carbonyl)-amino]-4-(2-chloro-phenyl)-2-hydroxy-butyric acid]: the Ki is 12.6 to 100 nM.

With `O=C(N[C@H](Cc1ccccc1Cl)[C@@H](O)C(=O)O)c1cc(-c2ccccc2O)[nH]n1` [Example 2-50, (2R,3R)-4-(2-Chloro-phenyl)-2-hydroxy-3-{[5-(2-hydroxy-phenyl)-1H-pyrazole-3-carbonyl]-amino}-butyric acid], the Ki is 12.6 to 100 nM.

`O=C(N[C@H](Cc1ccccc1Cl)[C@@H](O)C(=O)O)c1cc(-c2cnccn2)[nH]n1` [Example 2-51, (2R,3R)-4-(2-Chloro-phenyl)-2-hydroxy-3-[(5-pyrazin-2-yl-1H-pyrazole-3-carbonyl)-amino]-butyric acid]: the Ki is 12.6 to 100 nM.

As for `O=C(N[C@H](Cc1ccccc1Cl)[C@@H](O)C(=O)O)c1cc(-c2ccco2)[nH]n1` [Example 2-52, (2R,3R)-4-(2-Chloro-phenyl)-3-[(5-furan-2-yl-1H-pyrazole-3-carbonyl)-amino]-2-hydroxy-butyric acid], the Ki is 12.6 to 100 nM.

On to `O=C(N[C@H](Cc1ccccc1Cl)[C@@H](O)C(=O)O)c1cc(-c2ccc3ccccc3c2)[nH]n1` [Example 2-53, (2R,3R)-4-(2-Chloro-phenyl)-2-hydroxy-3-[(5-naphthalen-2-yl-1H-pyrazole-3-carbonyl)-amino]-butyric acid], for which the Ki is 12.6 to 100 nM.

For `O=C(N[C@H](Cc1ccccc1Cl)[C@@H](O)C(=O)O)c1cc(C(=O)N2CCOCC2)[nH]n1` [Example 2-55, (2R,3R)-4-(2-Chloro-phenyl)-2-hydroxy-3-{[5-(morpholine-4-carbonyl)-1H-pyrazole-3-carbonyl]-amino}-butyric acid], the Ki was 12.6 to 100 nM.

`CC(C)CN(C)C(=O)c1cc(C(=O)N[C@H](Cc2ccccc2Cl)[C@@H](O)C(=O)O)n[nH]1` [Example 2-56, (2R,3R)-4-(2-Chloro-phenyl)-2-hydroxy-3-{[5-(isobutyl-methyl-carbamoyl)-1H-pyrazole-3-carbonyl]-amino}-butyric acid]: the Ki was 12.6 to 100 nM.

Regarding `O=C(N[C@H](Cc1ccccc1Cl)[C@@H](O)C(=O)O)c1cc(NC(=O)c2ccccc2Cl)[nH]n1` [Example 2-57, (2R,3R)-3-{[5-(2-Chloro-benzoylamino)-1H-pyrazole-3-carbonyl]-amino}-4-(2-chloro-phenyl)-2-hydroxy-butyric acid], the Ki was 12.6 to 100 nM.

As to `Cn1nc(C(=O)N[C@H](Cc2ccccc2Cl)[C@@H](O)C(=O)O)cc1-c1ccccc1` [Example 2-58, (2R,3R)-4-(2-Chloro-phenyl)-2-hydroxy-3-[(1-methyl-5-phenyl-1H-pyrazole-3-carbonyl)-amino]-butyric acid], the Ki is 12.6 to 100 nM.

Take `O=C(N[C@H](Cc1ccccc1Cl)[C@@H](O)C(=O)O)c1cc(C(=O)O)n(CCc2ccccc2)n1` [Example 2-59, 5-[(1R,2R)-2-Carboxy-1-(2-chloro-benzyl)-2-hydroxy-ethylcarbamoyl]-2-phenethyl-2H-pyrazole-3-carboxylic acid]: the Ki was 12.6 to 100 nM.

Turning to `CC(c1ccccc1)n1nc(C(=O)N[C@H](Cc2ccccc2Cl)[C@@H](O)C(=O)O)cc1C(=O)O` (stereo partly drawn) [Example 2-60, 5-[(1R,2R)-2-Carboxy-1-(2-chloro-benzyl)-2-hydroxy-ethylcarbamoyl]-2-(1-phenyl-ethyl)-2H-pyrazole-3-carboxylic acid], the Ki is 12.6 to 100 nM.

With `Cc1cc(Cn2nc(C(=O)N[C@H](Cc3ccccc3Cl)[C@@H](O)C(=O)O)cc2C(=O)O)no1` [Example 2-61, 5-[(1R,2R)-2-Carboxy-1-(2-chloro-benzyl)-2-hydroxy-ethylcarbamoyl]-2-(5-methyl-isoxazol-3-ylmethyl)-2H-pyrazole-3-carboxylic acid], the Ki is 1.26 to 10 nM.

Regarding `CCOc1ncc(Cn2nc(C(=O)N[C@H](Cc3ccccc3Cl)[C@@H](O)C(=O)O)cc2C(=O)O)cn1` [Example 2-62, 5-[(1R,2R)-2-Carboxy-1-(2-chloro-benzyl)-2-hydroxy-ethylcarbamoyl]-2-(2-ethoxy-pyrimidin-5-ylmethyl)-2H-pyrazole-3-carboxylic acid], the Ki was not above 1 nM.

On to `O=C(N[C@H](Cc1ccccc1Cl)[C@@H](O)C(=O)O)c1cc(-c2ccccc2Cl)n(-c2ccc(Cl)c(Cl)c2)n1` [Example 2-63, (2R,3R)-4-(2-Chloro-phenyl)-3-{[5-(2-chloro-phenyl)-1-(3,4-dichloro-phenyl)-1H-pyrazole-3-carbonyl]-amino}-2-hydroxy-butyric acid], for which the Ki is 12.6 to 100 nM.

For `O=C(N[C@H](Cc1ccccc1Cl)[C@@H](O)C(=O)O)c1cc(-c2ccccc2Cl)n(-c2ccc(Cl)cc2Cl)n1` [Example 2-64, (2R,3R)-4-(2-Chloro-phenyl)-3-{[5-(2-chloro-phenyl)-1-(2,4-dichloro-phenyl)-1H-pyrazole-3-carbonyl]-amino}-2-hydroxy-butyric acid], the Ki was 12.6 to 100 nM.

The values above are taken from patent publication US8993752B2, “Neprilysin inhibitors” (Theravance Biopharma R&D IP, LLC, priority 2011, dated 2015).
